Assay results from patent publication US20220348592A1, “FUSED HETEROCYCLIC DERIVATIVES” (Janssen Sciences Ireland Unlimited Company, priority 2019, published 2022).
Where two headings read alike, the source gives them in different places.

Assays:
[1] = system: HBV; assay: Anti-HBV activity: intracellular HBV DNA by real-time PCR in HepG2.117 cell line; format: cell-based, Hepatitis B virus; settings: Hepatitis B virus, read-out: HBV-AVE-HepG2.117 EC50 (μM, mean value)
Description: The anti HBV activity was measured using the HepG2.117 cell line, a stable, inducibly HBV producing cell line, which replicates HBV in the absence of doxicycline (Tet-off system). The HepG2 cell line is available from ATCC® under number HB-8065. Transfection of the HepG2 cell line can be as described in Sun and Nassal 2006 Journal of Hepatology 45 (2006) 636-645 “Stable HepG2- and Huh7-based human hepatoma cell lines for efficient regulated expression of infectious hepatitis B virus”.
For the antiviral assay, HBV replication was induced, followed by a treatment with serially diluted compound in 96-well plates. After 3 days of treatment, the antiviral activity was determined by quantification of intracellular HBV DNA using real-time PCR and an HBV specific primer set and probe.

[2] = Cytotoxicity in HepG2.117 cells, ATPlite Luminescence Assay; format: cell-based, human; settings: human, incubated for 3 days, mean value, read-out: TOX-HepG2.117 CC50 (μM, mean value)
Description: Cytotoxicity of the compounds was tested using HepG2 or HepG2.117 cells, incubated for 3 days in the presence of compounds. The viability of the cells was assessed using the PERKIN ELMER ATPlite Luminescence Assay System.”

[3] = 72 h, HepG2.117 cells, 3 days of treatment, intracellular HBV DNA by real-time PCR, mean value

## C[C@@H]1Cc2nn3c(c2CN1C(=O)c1ccc(Cl)c(Cl)c1)C(=O)N(Cc1ccnn1C)CC3 [Compound 18, (3R)-2-(3,4-Dichlorobenzoyl)-3-methyl-9-[(1-methyl-1H-pyrazol-5-yl)methyl]-1,2,3,4,8,9-hexahydropyrido[4′,3′:3,4]pyrazolo[1,5-a]pyrazin-10(7H)-one]
[1]; [3]
  EC50: 0.252 µM
[2]
  CC50 at 3 days: > 50 µM

## C[C@@H]1Cc2nn3c(c2CN1C(=O)c1ccc(Cl)c(Cl)c1)C(=O)N(Cc1ccn(C)n1)CC3 [Compound 19, (3R)-2-(3,4-Dichlorobenzoyl)-3-methyl-9-[(1-methyl-1H-pyrazol-3-yl)methyl]-1,2,3,4,8,9-hexahydropyrido[4′,3′:3,4]pyrazolo[1,5-a]pyrazin-10(7H)-one]
[1]; [3]
  EC50: 0.079 µM
[2]
  CC50 at 3 days: > 50 µM

## C[C@@H]1Cc2nn3c(c2CN1C(=O)c1ccc(Cl)c(Cl)c1)C(=O)N(Cc1cc[nH]n1)CC3 [Compound 20, (3R)-2-(3,4-Dichlorobenzoyl)-3-methyl-9-[(1H-pyrazol-3-yl)methyl]-1,2,3,4,8,9-hexahydro-pyrido[4′,3′:3,4]pyrazolo[1,5-a]pyrazin-10(7H)-one]
[1]; [3]
  EC50: 0.108 µM
[2]
  CC50 at 3 days: > 50 µM

## C[C@@H]1Cc2nn3c(c2CN1C(=O)c1ccc(Cl)c(Cl)c1)C(=O)N(Cc1ccon1)CC3 [Compound 21, (3R)-2-(3,4-Dichlorobenzoyl)-3-methyl-9-[(1,2-oxazol-3-yl)methyl]-1,2,3,4,8,9-hexahydro-pyrido[4′,3′:3,4]pyrazolo[1,5-a]pyrazin-10(7H)-one]
[1]; [3]
  EC50: 0.268 µM
[2]
  CC50 at 3 days: > 50 µM

## C[C@@H]1Cc2nn3c(c2CN1C(=O)c1ccc(Cl)c(Cl)c1)C(=O)N(Cc1cscn1)CC3 [Compound 22, (3R)-2-(3,4-Dichlorobenzoyl)-3-methyl-9-[(1,3-thiazol-4-yl)methyl]-1,2,3,4,8,9-hexahydro-pyrido[4′,3′:3,4]pyrazolo[1,5-a]pyrazin-10(7H)-one]
[1]; [3]
  EC50: 0.129 µM
[2]
  CC50 at 3 days: > 50 µM

## COc1ccc([C@@H](C)N2CCn3nc4c(c3C2=O)CN(C(=O)c2ccc(Cl)c(Cl)c2)[C@H](C)C4)cc1 [Compound 23, (3R)-2-(3,4-Dichlorobenzoyl)-9-[(1R)-1-(4-methoxyphenyl)ethyl]-3-methyl-1,2,3,4,8,9-hexahydropyrido[4′,3′:3,4]pyrazolo[1,5-a]pyrazin-10(7H)-one]
[1]; [3]
  EC50: 0.022 µM
[2]
  CC50 at 3 days: > 50 µM

## COc1ccc([C@H](C)N2CCn3nc4c(c3C2=O)CN(C(=O)c2ccc(Cl)c(Cl)c2)[C@H](C)C4)cc1 [Compound 24, (3R)-2-(3,4-dichlorobenzoyl)-9-[(1S)-1-(4-methoxyphenyl)ethyl]-3-methyl-1,2,3,4,8,9-hexahydropyrido[4′,3′:3,4]pyrazolo[1,5-a]pyrazin-10(7H)-one]
[1]; [3]
  EC50: 0.036 µM
[2]
  CC50 at 3 days: 10.4 µM

## C[C@@H]1Cc2nn3c(c2CN1C(=O)c1ccc(Cl)c(Cl)c1)C(=O)N([C@H](C)c1ccc(F)cc1)CC3 [Compound 25, (3R)-2-(3,4-Dichlorobenzoyl)-9-[(1R)-1-(4-fluorophenyl)ethyl]-3-methyl-1,2,3,4,8,9-hexahydropyrido[4′,3′:3,4]pyrazolo[1,5-a]pyrazin-10(7H)-one]
[1]; [3]
  EC50: 0.016 µM
[2]
  CC50 at 3 days: > 25 µM

## C[C@@H]1Cc2nn3c(c2CN1C(=O)c1ccc(Cl)c(Cl)c1)C(=O)N([C@@H](C)c1ccc(F)cc1)CC3 [Compound 26, (3R)-2-(3,4-Dichlorobenzoyl)-9-[(1S)-1-(4-fluorophenyl)ethyl]-3-methyl-1,2,3,4,8,9-hexahydro-pyrido[4′,3′:3,4]pyrazolo[1,5-a]pyrazin-10(7H)-one]
[1]; [3]
  EC50: 0.028 µM
[2]
  CC50 at 3 days: 26.2 µM

## C[C@@H]1Cc2nn3c(c2CN1C(=O)c1ccc(Cl)c(Cl)c1)C(=O)N([C@H](C)c1ccc(OC(F)F)cc1)CC3 [Compound 27, (3R)-2-(3,4-Dichlorobenzoyl)-9-{(1R)-1-[4-(difluoromethoxy)phenyl]ethyl}-3-methyl-1,2,3,4,8,9-hexahydropyrido[4′,3′:3,4]pyrazolo[1,5-a]pyrazin-10(7H)-one]
[1]; [3]
  EC50: 0.103 µM
[2]
  CC50 at 3 days: > 50 µM

## C[C@@H]1Cc2nn3c(c2CN1C(=O)c1ccc(Cl)c(Cl)c1)C(=O)N([C@@H](C)c1ccc(OC(F)F)cc1)CC3 [Compound 28, (3R)-2-(3,4-Dichlorobenzoyl)-9-{(1S)-1-[4-(difluoromethoxy)phenyl]ethyl}-3-methyl-1,2,3,4,8,9-hexahydropyrido[4′,3′:3,4]pyrazolo[1,5-a]pyrazin-10(7H)-one]
[1]; [3]
  EC50: 0.057 µM
[2]
  CC50 at 3 days: 16.7 µM

## C[C@@H]1Cc2nn3c(c2CN1C(=O)c1ccc(Cl)c(Cl)c1)C(=O)N([C@@H](C)c1ncn(S(=O)(=O)N(C)C)n1)CC3 [Compound 29, 3-{(1S)-1-[(3R)-2-(3,4-Dichlorobenzoyl)-3-methyl-10-oxo-1,3,4,7,8,10-hexahydropyrido-[4′,3′:3,4]pyrazolo[1,5-a]pyrazin-9(2H)-yl]ethyl}-N,N-dimethyl-1H-1,2,4-triazole-1-sulfonamide]
[1]; [3]
  EC50: 0.741 µM
[2]
  CC50 at 3 days: > 50 µM

## C[C@@H]1Cc2nn3c(c2CN1C(=O)c1ccc(Cl)c(Cl)c1)C(=O)N([C@@H](C)c1nc[nH]n1)CC3 [Compound 30, (3R)-2-(3,4-Dichlorobenzoyl)-3-methyl-9-[(1S)-1-(1H-1,2,4-triazol-3-yl)ethyl]-1,2,3,4,8,9-hexa-hydropyrido[4′,3′:3,4]pyrazolo[1,5-a]pyrazin-10(7H)-one]
[1]; HepG2.117, 72 h
  EC50: 1.5 µM
[2]
  CC50 at 3 days: > 50 µM

## CN1CCCn2nc3c(c2C1=O)CN(C(=O)c1ccc(Cl)c(Cl)c1)CC3 [Compound 34, 2-(3,4-Dichlorobenzoyl)-10-methyl-1,2,3,4,7,8,9,10-octahydro-11H-pyrido[4′,3′:3,4]pyrazolo-[1,5-a][1,4]diazepin-11-one]
[1]; [3]
  EC50: 1.38 µM
[2]
  CC50 at 3 days: > 50 µM

## COc1ccc(CN2CCCn3nc4c(c3C2=O)CN(C(=O)c2ccc(Cl)c(Cl)c2)CC4)cc1 [Compound 36, 2-(3,4-Dichlorobenzoyl)-10-[(4-methoxyphenyl)methyl]-1,2,3,4,7,8,9,10-octahydro-11H-pyrido[4′,3′:3,4]pyrazolo[1,5-a][1,4]diazepin-11-one]
[1]; [3]
  EC50: 0.077 µM
[2]
  CC50 at 3 days: 24.6 µM

## O=C(c1ccc(Cl)c(Cl)c1)N1CCc2nn3c(c2C1)C(=O)N(Cc1ccncc1)CCC3 [Compound 37, 2-(3,4-Dichlorobenzoyl)-10-[(pyridin-4-yl)methyl]-1,2,3,4,7,8,9,10-octahydro-11H-pyrido-[4′,3′:3,4]pyrazolo[1,5-a][1,4]diazepin-11-one]
[1]; [3]
  EC50: 0.345 µM
[2]
  CC50 at 3 days: > 50 µM

## C[C@@H]1Cc2nn3c(c2CN1C(=O)c1ccc(Cl)c(Cl)c1)C(=O)NCCC3 [Compound 38, (3R)-2-(3,4-Dichlorobenzoyl)-3-methyl-1,2,3,4,7,8,9,10-octahydro-11H-pyrido[4′,3′:3,4]-pyrazolo[1,5-a][1,4]diazepin-11-one]
[1]; [3]
  EC50: 1.75 µM
[2]
  CC50 at 3 days: > 50 µM

## CC(C)CN1CCCn2nc3c(c2C1=O)CN(C(=O)c1ccc(Cl)c(Cl)c1)[C@H](C)C3 [Compound 39, (3R)-2-(3,4-Dichlorobenzoyl)-3-methyl-10-(2-methylpropyl)-1,2,3,4,7,8,9,10-octahydro-11H-pyrido[4′,3′:3,4]pyrazolo[1,5-a][1,4]diazepin-11-one]
[1]; HepG2.117, 72 h
  EC50: 2.49 µM
[2]
  CC50 at 3 days: > 50 µM

## COc1ccc(CN2CCCn3nc4c(c3C2=O)CN(C(=O)c2ccc(Cl)c(Cl)c2)[C@H](C)C4)cc1 [Compound 40, (3R)-2-(3,4-Dichlorobenzoyl)-10-[(4-methoxyphenyl)methyl]-3-methyl-1,2,3,4,7,8,9,10-octahydro-11H-pyrido[4′,3′:3,4]pyrazolo[1,5-a][1,4]diazepin-11-one]
[1]; [3]
  EC50: 0.022 µM
[2]
  CC50 at 3 days: 20.9 µM

## COc1ccc(CN2CC(NS(C)(=O)=O)Cn3nc4c(c3C2=O)CN(C(=O)c2ccc(Cl)c(Cl)c2)CC4)cc1 (stereo not drawn) [Compound 41, N-{2-(3,4-Dichlorobenzoyl)-10-[(4-methoxyphenyl)methyl]-11-oxo-1,3,4,7,8,9,10,11-octahydro-2H-pyrido[4′,3′:3,4]pyrazolo[1,5-a][1,4]diazepin-8-yl}methanesulfonamide]
[1]; [3]
  EC50: 0.328 µM
[2]
  CC50 at 3 days: > 50 µM

## C=C1CN(C)C(=O)c2c3c(nn2C1)C[C@@H](C)N(C(=O)c1ccc(Cl)c(Cl)c1)C3 [Compound 42, (3R)-2-(3,4-Dichlorobenzoyl)-3,10-dimethyl-8-methylidene-1,2,3,4,7,8,9,10-octahydro-11H-pyrido[4′,3′:3,4]pyrazolo[1,5-a][1,4]diazepin-11-one]
[1]; [3]
  EC50: 0.308 µM
[2]
  CC50 at 3 days: 1.44 µM

## C=C1CN(CC(F)(F)F)C(=O)c2c3c(nn2C1)CCN(C(=O)c1ccc(Cl)c(Cl)c1)C3 [Compound 43, 2-(3,4-Dichlorobenzoyl)-8-methylidene-10-(2,2,2-trifluoroethyl)-1,2,3,4,7,8,9,10-octahydro-11H-pyrido[4′,3′:3,4]pyrazolo[1,5-a][1,4]diazepin-11-one]
[1]; [3]
  EC50: 0.21 µM
[2]
  CC50 at 3 days: > 50 µM

## C[C@@H]1Cc2nn3c(c2CN1C(=O)c1ccc(Cl)c(Cl)c1)C(=O)N(C)C[C@@H](F)C3 [Compound 44]
[1]; [3]
  EC50: 0.079 µM
[2]
  CC50 at 3 days: > 50 µM

## O=C(c1ccc(Cl)c(Cl)c1)N1CCc2nn3c(c2C1)C(=S)NCCC3 [Compound 48, (3,4-dichlorophenyl)(11-sulfanylidene-1,3,4,7,8,9,10,11-octahydro-2H-pyrido[4′,3′:3,4]pyrazolo-[1,5-a][1,4]diazepin-2-yl)methanone]
[1]; [3]
  EC50: 1.23 µM
[2]
  CC50 at 3 days: > 50 µM
